# Measurements reported in ChEMBL document CHEMBL3044701, “Synthesis, characterization and biological activity of Schiff bases derived from metronidazole” (Med Chem Res, 2012).
# Active and inactive are the calls of the source. The calls are words filed in the database; no cut-off is given here.
# Columns and labels:
# Candida albicans [1] = experiment: Antifungal activity against Candida albicans ATCC 10231 after 24 hr by broth microdilution method; format: functional; details: ATCC 10231, 24 h
# Staphylococcus aureus [2] = experiment: Antibacterial activity against Staphylococcus aureus ATCC 6538P after 24 hr by broth microdilution method; format: functional
# Giardia intestinalis [3] = experiment: Antigiardial activity against Giardia intestinalis WB by trypan blue assay; format: functional, organism-based; details: Giardia duodenalis
# Escherichia coli [4] = experiment: Antibacterial activity against Escherichia coli ATCC 8739 after 24 hr by broth microdilution method; format: functional; details: ATCC 8739, 24 h
# Clostridium sporogenes = experiment: Antibacterial activity against Clostridium sporogenes ATCC 19404 after 24 hr by broth microdilution method; format: functional; details: ATCC 19404, 24 h
# Candida albicans [5] = experiment: Antifungal activity against Candida albicans ATCC 10231 up to 1.25 mg/ml after 24 hr by broth microdilution method; format: functional, organism-based
# Escherichia coli [6] = experiment: Antibacterial activity against Escherichia coli ATCC 8739 up to 1.25 mg/ml after 24 hr by broth microdilution method; format: functional, organism-based
# Staphylococcus aureus [7] = experiment: Antibacterial activity against Staphylococcus aureus ATCC 6538P up to 1.25 mg/ml after 24 hr by broth microdilution method; format: functional, organism-based
# Giardia intestinalis [8] = experiment: Ratio of metronidazole IC50 to compound IC50 for Giardia intestinalis; format: functional, Giardia duodenalis
MIC (Candida albicans [1]; read-out: MIC),MIC (Staphylococcus aureus [2]; read-out: MIC),MIC (Escherichia coli [4]; read-out: MIC),MIC (Clostridium sporogenes),MIC (Candida albicans [1]),MIC (Staphylococcus aureus [2]),MIC (Escherichia coli [4]),Structure (SMILES),IC50 (Giardia intestinalis [3]),Activity (Candida albicans [5]),Activity (Escherichia coli [6]),Activity (Staphylococcus aureus [7]),Ratio IC50 (Giardia intestinalis [8])
340 µM,4340 µM,4340 µM,203 µM,,,,COc1ccc(/C=N/CCn2c([N+](=O)[O-])cnc2C)cc1,2.26 µM,,,,
170 µM,2670 µM,2140 µM,267 µM,,,,Cc1ncc([N+](=O)[O-])n1CC/N=C/c1ccccc1Cl,7.29 µM,,,,
1990 µM,5090 µM,4300 µM,1130 µM,,,,Cc1ncc([N+](=O)[O-])n1CC/N=C/c1ccc(F)cc1,2.39 µM,,,,
,,,,2.9 µg/mL,,,Clc1ccc(COC(Cn2ccnc2)c2ccc(Cl)cc2Cl)c(Cl)c1 (centres undefined) [MICONAZOLE],,,,,
,2050 µM,5480 µM,45.6 µM,,,,Cc1ncc([N+](=O)[O-])n1CCO [METRONIDAZOLE],3.74 µM,inactive,,,
,8460 µM,8460 µM,376 µM,,,,Cc1ncc([N+](=O)[O-])n1CC/N=C/c1ccncc1,11.2 µM,inactive,,,
,8850 µM,8850 µM,236 µM,,,,Cc1ncc([N+](=O)[O-])n1CC/N=C/c1ccco1,2.78 µM,inactive,,,
,,,,,0.036 µg/mL,2.3 µg/mL,CC1(C)S[C@@H]2[C@H](NC(=O)[C@H](N)c3ccccc3)C(=O)N2[C@H]1C(=O)O [AMPICILLIN],,,,,
450 µM,,,257 µM,,,,Cc1ncc([N+](=O)[O-])n1CC/N=C/c1ccc([N+](=O)[O-])cc1,1.83 µM,,inactive,inactive,
360 µM,2000 µM,2240 µM,285 µM,,,,Cc1ncc([N+](=O)[O-])n1CC/N=C/c1ccccc1O,2.15 µM,,,,
2070 µM,7100 µM,7100 µM,369 µM,,,,Cc1ncc([N+](=O)[O-])n1CC/N=C/c1cccs1,0.83 µM,,,,5
440 µM,760 µM,760 µM,1010 µM,,,,Cc1ncc([N+](=O)[O-])n1CC/N=C/c1cc(Cl)ccc1O,4.32 µM,,,,
1000 µM,6890 µM,4370 µM,1440 µM,,,,Cc1ccc(/C=N/CCn2c([N+](=O)[O-])cnc2C)cc1,1.36 µM,,,,
